What was measured:
[1] = Inhibition of microtubule assembly after 15 mins
[2] = Displacement of [3H]colchicine from tubulin at inhibitor and colchicine ratio 1:1 after 10 mins relative to control; design: concentration or dose not given beside the values; settings: values are per cent of control
[3] = Displacement of [3H]colchicine from tubulin at inhibitor and colchicine ratio 10:1 after 10 mins relative to control; design: concentration or dose not given beside the values; settings: values are per cent of control
[4] = Displacement of [3H]colchicine from tubulin at inhibitor and colchicine ratio 100:1 after 10 mins relative to control; settings: values are per cent of control
[5] = tested on: L1210; experiment: Cytotoxicity against mouse L1210 cells after 24 hrs; format: functional, cell-based; settings: L1210, 24 h
[6] = tested on: L1210; experiment: Antimitotic activity in mouse L1210 cells assessed as increase in mitotic index at 2 to 7 times IC50 after 6 hrs relative to control; format: functional
[7] = tested on: P388; experiment: Cytotoxicity against mouse P388 cells; format: functional

For `COc1cc(CCc2ccc(O)cc2)cc(OC)c1OC`, the IC50 [1] was greater than 100 µM, the residual binding, % of control [2] was 89% and the residual binding, % of control [3] was 77%. The residual binding, % of control [4] was 43%, the IC50 [5] was 50 µM and the Activity [6] was 25%. For the same molecule, the ED50 [7] was 0.25 Ug/ml.

`COc1cc(CCc2ccc(OC)c(OC)c2)cc(OC)c1` gave an IC50 [1] greater than 100 µM, a residual binding, % of control [2] of 90% and a residual binding, % of control [3] of 80%. The residual binding, % of control [4] was 34%, the IC50 [5] was 30 µM and the Activity [6] was 56%.

For `COc1ccc(CCc2cc(OC)c(OC)c(OC)c2)cc1OC`, the IC50 [1] was greater than 100 µM, the residual binding, % of control [2] was 88% and the residual binding, % of control [3] was 63%. It also gave a residual binding, % of control [4] of 37%, an IC50 [5] of 20 µM and an Activity [6] of 25%.

Work on `COc1cc(CCc2ccc(O)c(O)c2)cc(OC)c1OC` yielded an IC50 [1] greater than 100 µM, a residual binding, % of control [2] of 92% and a residual binding, % of control [3] of 81%. For the same molecule, the residual binding, % of control [4] was 48%, the IC50 [5] was 3 µM and the Activity [6] was 25%. It also gave an ED50 [7] of 0.4 Ug/ml.

Work on `COc1cc(CCc2ccc(O)c(O)c2)cc(OC)c1` yielded an IC50 [1] greater than 100 µM, a residual binding, % of control [2] of 75% and a residual binding, % of control [3] of 31%. It also gave a residual binding, % of control [4] of 10%, an IC50 [5] of 1 µM and an Activity [6] of 25%. It also gave an ED50 [7] of 1.7 Ug/ml.

In the case of `COc1cc(CCc2ccc(OC)c(O)c2)cc(OC)c1`, the IC50 [1] is reported as 30 µM, the residual binding, % of control [2] is reported as 38% and the residual binding, % of control [3] is reported as 8%. For the same molecule, the residual binding, % of control [4] was 3%, the IC50 [5] was 1 µM and the Activity [6] was 25%. The ED50 [7] was 1.7 Ug/ml.

For `COc1cc([C@@H]2c3cc4c(cc3[C@H](O)[C@H]3COC(=O)[C@H]23)OCO4)cc(OC)c1OC` [PODOFILOX], the IC50 [1] was 4 µM, the residual binding, % of control [2] was 11% and the residual binding, % of control [3] was 0%.

`COc1ccc(CCc2cc(OC)c(OC)c(OC)c2)c(O)c1O` showed an IC50 [1] of 4 µM, a residual binding, % of control [2] of 13% and a residual binding, % of control [3] of 0%. It also gave an IC50 [5] of 2 µM and an Activity [6] of 25%.

Work on `COc1ccc(/C=C\c2cc(OC)c(OC)c(OC)c2)c(O)c1O` [COMBRETASTATIN A-1] yielded an IC50 [1] of 4 µM, a residual binding, % of control [2] of 3% and a residual binding, % of control [3] of 0%. It also gave an IC50 [5] of 0.6 µM and an Activity [6] of 25%.

— ChEMBL document CHEMBL1150757, “Isolation, structure, synthesis, and antimitotic properties of combretastatins B-3 and B-4 from Combretum caffrum” (J Nat Prod, 1988)
